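Growth conditions: 96-well plates. Treatment: test compound, 48 hours, 5 concentrations. Analysis: linear interpolation between bracketing concentrations; unreached endpoints set to highest concentration. GI50 marks 50% less growth.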 The source made the active and inactive calls. Cut-off read from the data, not from the text of the source: active = GI50 up to about 1.1 µM and inactive = higher.
Legend:
Assay in all cases: NCI-60 cell line screen, 48 h
[1] = tested on: HL-60
[2] = tested on: SW-620
[3] = tested on: OVCAR-4
[4] = tested on: OVCAR-5
[5] = tested on: OVCAR-8
[6] = tested on: CAKI-1
[7] = tested on: COLO 205
[8] = tested on: HCC 2998
[9] = tested on: UACC-257
[10] = tested on: MDA-MB-231
[11] = tested on: RXF 393
[12] = tested on: SK-OV-3
[13] = tested on: LOX IMVI
[14] = tested on: NCI/ADR-RES
[15] = tested on: SK-MEL-2
[16] = tested on: 786-0
[17] = tested on: MOLT-4
[18] = tested on: TK-10
[19] = tested on: KM12
[20] = tested on: MDA-N
[21] = tested on: BT-549
[22] = tested on: SK-MEL-28
[23] = tested on: UO-31
[24] = tested on: MDA-MB-435
[25] = tested on: Hs-578T
[26] = tested on: DU-145
[27] = tested on: ACHN
[28] = tested on: SNB-75
[29] = tested on: OVCAR-3
[30] = tested on: A549
[31] = tested on: SN12C
[32] = tested on: SF-295
[33] = tested on: MCF7
[34] = tested on: Malme-3M
[35] = tested on: UACC-62
[36] = tested on: U-251
[37] = tested on: T47D
[38] = tested on: SNB-19
[39] = tested on: SF-539
[40] = tested on: HT-29
[41] = tested on: HOP-92
[42] = tested on: M14
[43] = tested on: HOP-62
[44] = tested on: IGROV-1
[45] = tested on: NCI-H522
[46] = tested on: SF-268
[47] = tested on: NCI-H23
[48] = tested on: CCRF-CEM
[49] = tested on: SR
[50] = tested on: HCT-116
[51] = tested on: NCI-H226
[52] = tested on: RPMI-8226
[53] = tested on: PC-3
[54] = tested on: EKVX
[55] = tested on: HCT-15
[56] = tested on: NCI-H460
[57] = tested on: K562
[58] = tested on: SK-MEL-5

Cc1ccc(/C=C2\N=C(N3CCOCC3)NC2=O)cc1
GI50 [1]: > 100 µM (inactive)
GI50 [2]: > 100 µM (inactive)
GI50 [3]: > 100 µM (inactive)
GI50 [4]: > 100 µM (inactive)
GI50 [5]: > 100 µM (inactive)
GI50 [6]: > 100 µM (inactive)
GI50 [7]: > 100 µM (inactive)
GI50 [8]: > 100 µM (inactive)
GI50 [9]: > 100 µM (inactive)
GI50 [10]: > 100 µM (inactive)
GI50 [11]: > 100 µM (inactive)
GI50 [12]: > 100 µM (inactive)
GI50 [13]: > 100 µM (inactive)
GI50 [14]: > 100 µM (inactive)
GI50 [15]: > 100 µM (inactive)
GI50 [16]: > 100 µM (inactive)
GI50 [17]: > 100 µM (inactive)
GI50 [18]: > 100 µM (inactive)
GI50 [19]: > 100 µM (inactive)
GI50 [20]: > 100 µM (inactive)
GI50 [21]: > 100 µM (inactive)
GI50 [22]: > 100 µM (inactive)
GI50 [23]: > 100 µM (inactive)
GI50 [24]: > 100 µM (inactive)
GI50 [25]: > 100 µM (inactive)
GI50 [26]: > 100 µM (inactive)
GI50 [27]: > 100 µM (inactive)
GI50 [28]: > 100 µM (inactive)
GI50 [29]: > 100 µM (inactive)
GI50 [30]: > 100 µM (inactive)
GI50 [31]: > 100 µM (inactive)
GI50 [32]: > 100 µM (inactive)
GI50 [33]: > 100 µM (inactive)
GI50 [34]: > 100 µM (inactive)
GI50 [35]: > 100 µM (inactive)
GI50 [36]: > 100 µM (inactive)
GI50 [37]: > 100 µM (inactive)
GI50 [38]: > 100 µM (inactive)
GI50 [39]: > 100 µM (inactive)
GI50 [40]: > 100 µM (inactive)
GI50 [41]: > 100 µM (inactive)
GI50 [42]: > 100 µM (inactive)
GI50 [43]: 77.6 µM (inactive)
GI50 [44]: > 100 µM (inactive)
GI50 [45]: > 100 µM (inactive)
GI50 [46]: > 100 µM (inactive)
GI50 [47]: > 100 µM (inactive)
GI50 [48]: > 100 µM (inactive)
GI50 [49]: > 100 µM (inactive)
GI50 [50]: > 100 µM (inactive)
GI50 [51]: > 100 µM (inactive)
GI50 [52]: > 100 µM (inactive)
GI50 [53]: > 100 µM (inactive)
GI50 [54]: > 100 µM (inactive)
GI50 [55]: > 100 µM

Cc1cc(/N=C/c2ccc(C#N)cc2)n(-c2ccccc2)n1
GI50 [1]: 20.1 µM (inactive)
GI50 [2]: 49.4 µM (inactive)
GI50 [3]: > 100 µM (inactive)
GI50 [4]: > 100 µM (inactive)
GI50 [5]: 69 µM (inactive)
GI50 [6]: > 100 µM (inactive)
GI50 [7]: 31.3 µM (inactive)
GI50 [8]: > 100 µM (inactive)
GI50 [9]: > 100 µM (inactive)
GI50 [10]: > 100 µM (inactive)
GI50 [11]: > 100 µM (inactive)
GI50 [12]: 51.3 µM (inactive)
GI50 [13]: 63.4 µM (inactive)
GI50 [14]: 65.8 µM (inactive)
GI50 [15]: > 100 µM (inactive)
GI50 [16]: 80.5 µM (inactive)
GI50 [56]: > 100 µM (inactive)
GI50 [17]: 42.6 µM (inactive)
GI50 [18]: > 100 µM (inactive)
GI50 [19]: 56.1 µM (inactive)
GI50 [20]: 37.7 µM (inactive)
GI50 [21]: 93.3 µM (inactive)
GI50 [22]: > 100 µM (inactive)
GI50 [23]: > 100 µM (inactive)
GI50 [24]: 37 µM (inactive)
GI50 [25]: 44.2 µM (inactive)
GI50 [26]: > 100 µM (inactive)
GI50 [27]: > 100 µM (inactive)
GI50 [28]: 57 µM (inactive)
GI50 [29]: 38.9 µM (inactive)
GI50 [30]: 64.9 µM (inactive)
GI50 [31]: 82.2 µM (inactive)
GI50 [32]: 81.7 µM (inactive)
GI50 [33]: 41.1 µM (inactive)
GI50 [57]: 26.5 µM (inactive)
GI50 [34]: > 100 µM (inactive)
GI50 [35]: 80.4 µM (inactive)
GI50 [36]: 71.6 µM (inactive)
GI50 [37]: 48.9 µM (inactive)
GI50 [58]: 36 µM (inactive)
GI50 [38]: 65.8 µM (inactive)
GI50 [39]: 99.3 µM (inactive)
GI50 [40]: 47.8 µM (inactive)
GI50 [41]: > 100 µM (inactive)
GI50 [42]: 55.7 µM (inactive)
GI50 [43]: 68.9 µM (inactive)
GI50 [44]: 68.9 µM (inactive)
GI50 [45]: 72.4 µM (inactive)
GI50 [46]: 48.5 µM (inactive)
GI50 [47]: 56.1 µM (inactive)
GI50 [48]: 30.8 µM (inactive)
GI50 [49]: 35.5 µM (inactive)
GI50 [50]: 49.1 µM (inactive)
GI50 [51]: > 100 µM (inactive)
GI50 [52]: 26.2 µM (inactive)
GI50 [53]: 89.1 µM (inactive)
GI50 [54]: 94.8 µM (inactive)
GI50 [55]: 50.8 µM

Reference: ChEMBL document CHEMBL1201862, “PubChem BioAssay data set” (2004)
